Like-named read-outs stand apart in the source and are kept apart here.
Test: Blood concentration of E1 after oral dosing of the compounds to mice (HPLC)
Type: in vivo
Details: fasted female Balb/c mice, pooled blood of 3 mice
Procedure: Compounds were administered as single doses of 0.2mmole/kg in 0.1ml of 1% carboxymethyl cellulose by oral gavage to female Balb/c mice weighing 20g. Food was withheld from the mice for 18 hours prior to the start of the experiment. Blood was collected by cardiac puncture using heparinised syringes 15, 60 and 180 mins after dosing. Equal volumes (0.2ml) from 3 mice were pooled at each time point and 0.6ml of ice-cold ethanol was added. Following chilling at -20°C and centrifugation, 0.5ml of supernatant was dried under reduced pressure. The sample was then reconstituted with 0.5ml of 0.4M NH₄OAc (pH 6.0) and analysed by HPLC.

Nc1nc(O)c2ncn(OCCCO)c2n1 [Example E1, 9-(3-hydroxyprop-1-oxy)guanine]
concentration (Expt. 1, 15 min after single oral gavage dose of 0.2mmole/kg in 1% carboxymethyl cellulose, read-out: 9-(3-Hydroxypropoxy)guanine (E1) conc. (µM) in blood at time (min) after dosing: 15): 5.2 µM | concentration (Expt. 1, 60 min after single oral gavage dose of 0.2mmole/kg in 1% carboxymethyl cellulose, read-out: 9-(3-Hydroxypropoxy)guanine (E1) conc. (µM) in blood at time (min) after dosing: 60): 2 µM | concentration (Expt. 2, 15 min after single oral gavage dose of 0.2mmole/kg in 1% carboxymethyl cellulose, read-out: 9-(3-Hydroxypropoxy)guanine (E1) conc. (µM) in blood at time (min) after dosing: 15): 11 µM | concentration at 1 h (mouse, 200 umol/kg, Expt. 2, 60 min after single oral gavage dose of 0.2mmole/kg in 1% carboxymethyl cellulose, read-out: 9-(3-Hydroxypropoxy)guanine (E1) conc. (µM) in blood at time (min) after dosing: 60): 3.3 µM

— patent EP0413544A2, “Purine derivatives, process for their preparation, pharmaceutical compositions and intermediates” (Beecham Group p.l.c., priority 1989, dated 1991)
